The source of these data is US10738083B2, “Influenza virus neutralizing peptidomimetic compounds” (Janssen Vaccines & Prevention B.V., priority 2015, dated 2020).

For one test, the target named is H1 HA A/Brisbane/59/07 (Influenza A virus, UniProt D5F1Q8). Put plainly: AlphaLISA binding competition, HA + stem-binder. From the text: (§1) Binding competition studies were designed to test compounds for competition with other well characterized HA binding proteins (including e.g. CR9114) with known epitopes on HA. The epitopes where either located at the stem of the HA (viral membrane proximal part of HA) or, for control purposes, at the head of HA (viral membrane distal part of HA). If competition was observed, it is assumed that both molecules bind to a similar or at least overlapping epitope at the surface of HA. Competition with a HA head- and stem-binder was interpreted as unspecific binding.
(§2) Hereto an AlphaLISA competition assay (Perkin Elmer) was established which relied on biotinylated full length and trimeric HA proteins (Protein Sciences, 10 μL, 0.5 nM final concentration in 50 μL) bound by HA-specific binders. The interaction between HA and the binder was detected after 1 h incubation at room temperature (RT) with two beads, a streptavidin donor bead recognizing HA (10 μL of 10 μg/mL) and an anti Fc bead (10 μg/mL) recognizing the IgGs used. If after an additional hour of incubation at RT the excited donor bead (680 nm) and acceptor bead are in close proximity, an energy transfer (singlet oxygen) can be measured as a luminescence signal of the acceptor bead (Perkin Elmer EnVision plate reader). The signal intensity in this homogeneous assay format is directly proportional to the binding strength (affinity/avidity) between both binding partners.

Test [1] concerns the target T1, H1 HA A/California/07/2009 (Influenza A virus, UniProt C3W5X2). Put plainly: AlphaLISA binding competition, HA + stem-binder.
Description: as §1, §2
A general note: Bead proximity is the source of the signal in Alpha formats.

Test [2] has as its target H1 HA A/New Caledonia/20/1999 (Influenza A virus, UniProt Q6WG00). Put plainly: AlphaLISA binding competition, HA + stem-binder.
Description: as §1, §2

The target in test [3] is T1, H1 HA A/California/07/2009. Put plainly: AlphaLISA binding competition, HA + head-binder (control).
Description: as §1, §2

Test [4] deals with HA A/California/07/09 (H1) (Influenza A virus, UniProt C3W5X2). Put plainly: biochemical. It is filed as binding. Particulars: for koff: read-out: dissociation rate kd.
The target in test [5] is HA A/New Caledonia/20/99 (H1) (Influenza A virus, UniProt Q6WG00). Put plainly: biochemical. It is filed as binding. The note with it: for koff: read-out: dissociation rate kd.
The target in test [6] is HA A/Vietnam/1194/04 (H5) (Influenza A virus, UniProt A5A5M5). Put plainly: biochemical. Particulars: for koff: read-out: dissociation rate kd. It is filed as binding.

Structures are written as SMILES. *1 amine or outer side, *2 acyl side, *3 side chain or, on linkers, in order; H or OH if unused. Where a SMILES comes first, the peptide text is derived from it. Bridges are numbered along the chain shown (N, C = ends). [ ]: non-standard residue; d: D form. Phe(3,4-Cl2) = N[C@@H](Cc1ccc(Cl)c(Cl)c1)C(=O)O; X2 = O=C(CN(CC(=O)[*:2])CC(=O)[*:3])[*:1]; X1 = NCCC(=O)N[C@@H](CN[*:2])C(=O)[*:1]; Ala(cPent) = N[C@@H](CC1CCCC1)C(=O)O; Glutaryl = O=C(CCCC(=O)[*:2])[*:1]; hhPhe = N[C@@H](CCCc1ccccc1)C(=O)O; NMeL = CN[C@@H](CC(C)C)C(=O)O; Orn = NCCC[C@H](N)C(=O)O; βAla = NCCC(=O)O

Usually IC50 stands for the concentration that inhibits the measured activity by half. One may read the Kd as the constant that tells how readily two partners part at equilibrium. With `CC(=O)N[C@@H](CCCc1ccccc1)C(=O)N[C@H]1CCCNC(=O)CCNC(=O)[C@H](CO)NC(=O)[C@H](CC(C)C)NC(=O)[C@H](Cc2c[nH]c3ccccc23)NC(=O)[C@H](CCC(=O)O)NC(=O)[C@H](Cc2ccccc2)NC(=O)[C@H](Cc2ccc(O)cc2)NC(=O)[C@H](CCC(=O)O)NC(=O)[C@H](CC(C)C)N(C)C1=O` [CP141037] (Ac-[hhPhe][Orn][NMeL]EYFEWLS[βAla]; lactam 2-C), the IC50 on H1 HA A/Brisbane/59/07 was 87.1 nM; in test [1], 204 nM; in test [2] it was 81.3 nM; in test [3], > 50.1 µM. Besides, the Kd was 61.7 nM in test [4], 44.7 nM in test [5] and 64.6 nM in test [6]. For the same molecule, the values for the koff in test [4], in test [5] and in test [6] were 0.184 s⁻¹, 0.0753 s⁻¹ and 0.0845 s⁻¹, respectively.

Consider `CC(=O)N[C@@H](CCCc1ccccc1)C(=O)N[C@H]1CCCNC(=O)CCNC(=O)[C@H](CO)NC(=O)[C@H](CC(C)C)NC(=O)[C@H](Cc2c[nH]c3ccccc23)NC(=O)[C@H](CCC(=O)O)NC(=O)[C@H](Cc2ccccc2)NC(=O)[C@H](Cc2ccc(O)cc2)NC(=O)[C@H](CCCNC(=N)N)NC(=O)[C@H](CC(C)C)NC1=O` [CP132070] (Ac-[hhPhe][Orn]LRYFEWLS[βAla]; lactam 2-C), for which the results for the IC50 in test [1], in test [2] and in test [3] were 288 nM, 178 nM and > 50.1 µM, respectively.

With `CC(=O)N[C@@H](CCCc1ccccc1)C(=O)N[C@H]1CCCNC(=O)CCNC(=O)[C@H](CO)NC(=O)[C@H](CC(C)C)NC(=O)[C@H](Cc2c[nH]c3ccccc23)NC(=O)[C@H](CCC(=O)O)NC(=O)[C@H](Cc2ccc(Cl)c(Cl)c2)NC(=O)[C@H](Cc2ccc(O)cc2)NC(=O)[C@H](CCC(=O)O)NC(=O)[C@H](CC(C)C)NC1=O` [CP141019] (Ac-[hhPhe][Orn]LEY[Phe(3,4-Cl2)]EWLS[βAla]; lactam 2-C), the IC50 was 46.8 nM on H1 HA A/Brisbane/59/07, 70.8 nM in test [1], 50.1 nM in test [2] and > 50.1 µM in test [3]. Also, the Kd in test [4] was 17 nM; in test [5], 17.8 nM; in test [6], 31.6 nM. Besides, the koff in test [4] came out at 0.182 s⁻¹; in test [5], 0.0589 s⁻¹; in test [6], 0.0533 s⁻¹.

Consider `CC(=O)N[C@@H](CCCc1ccccc1)C(=O)N[C@H]1CCCNC(=O)CCNC(=O)[C@H](CO)NC(=O)[C@H](CC(C)C)NC(=O)[C@H](Cc2c[nH]c3ccccc23)NC(=O)[C@H](CCC(=O)O)NC(=O)[C@H](Cc2ccccc2)NC(=O)[C@H](Cc2ccc(O)cc2)NC(=O)[C@H](CCCCNC(=O)CCCC(=O)O)NC(=O)[C@H](CC(C)C)NC1=O` [CP141066] (Ac-[hhPhe][Orn]LK(Glutaryl)YFEWLS[βAla]; lactam 2-C), for which the figures for the IC50 in test [1], in test [2] and in test [3] were 245 nM, 186 nM and > 50.1 µM, respectively.

Consider `CC(=O)N[C@@H](CCCNC(=N)N)C(=O)N[C@H]1CCCNC(=O)CN2CC(=O)NCCC[C@@H](C(N)=O)NC(=O)[C@H](CO)NC(=O)[C@H](CC(C)C)NC(=O)[C@H](Cc3c[nH]c4ccccc34)NC(=O)[C@H](CCC(=O)O)NC(=O)[C@H](Cc3ccccc3)NC(=O)[C@H](Cc3ccc(O)cc3)NC(=O)[C@H](CCCNC(=O)C2)NC(=O)[C@H](CC(C)C)NC1=O` [CP141032] (Ac-R[Orn]L[Orn]YFEWLS[Orn]-NH2; linker 2-4-11 via X2), for which the IC50 in test [1] is 9550 nM; in test [2], 2240 nM; in test [3] it was > 50.1 µM.

On to `CC(=O)N[C@@H](CCCc1ccccc1)C(=O)N[C@H]1CCCNC(=O)[C@@H](NC(=O)CCN)CNC(=O)[C@H](CO)NC(=O)[C@H](CC(C)C)NC(=O)[C@H](Cc2c[nH]c3ccccc23)NC(=O)[C@H](CCC(=O)O)NC(=O)[C@H](Cc2ccccc2)NC(=O)[C@H](Cc2ccc(O)cc2)NC(=O)[C@H](CCC(=O)O)NC(=O)[C@H](CC(C)C)NC1=O` [CP141099] (Ac-[hhPhe][Orn]LEYFEWLS; linker 2-C via X1), for which the IC50 on H1 HA A/Brisbane/59/07 is 67.6 nM; in test [1], 58.9 nM; in test [2], 27.5 nM; in test [3], > 50.1 µM. In addition, the Kd was 26.3 nM in test [4], 25.1 nM in test [5] and 27.5 nM in test [6]. Further, the koff was determined as 0.252 s⁻¹ in test [4], 0.101 s⁻¹ in test [5] and 0.0652 s⁻¹ in test [6].

As for `CC(=O)N[C@@H](CCCc1ccccc1)C(=O)N[C@H]1CCCNC(=O)CCNC(=O)[C@H](CO)NC(=O)[C@H](CC(C)C)NC(=O)[C@H](Cc2c[nH]c3ccccc23)NC(=O)[C@H](CCC(=O)O)NC(=O)[C@H](Cc2ccccc2)NC(=O)[C@H](Cc2ccc(O)cc2)NC(=O)[C@H](CCC(=O)O)NC(=O)[C@H](CC2CCCC2)NC1=O` [CP141036] (Ac-[hhPhe][Orn][Ala(cPent)]EYFEWLS[βAla]; lactam 2-C), the IC50 is 145 nM at H1 HA A/Brisbane/59/07, 398 nM in test [1], 135 nM in test [2] and > 50.1 µM in test [3].
